Assay results: paper PMC10747822 (Pharmaceutics, 2023)
Where two headings read alike, the source gives them in different places. Where a SMILES comes first, the peptide text is derived from it. [ ]: non-standard residue; d: D form. The star is where a group is joined. NH(4-amidinobenzyl) = N=C(N)c1ccc(CN*)cc1

Legend:
[1] = Blood pharmacokinetics in mice after intravenous and intraperitoneal injection; type: in vivo, C57Bl/6 female mice; conditions: for half-life: C57Bl/6, mouse, whole blood sampled at 20, 40, 60, 120 min, non-compartmental
Description: Animal studies were approved by the regulatory authorities (Regierungspräsidium Karlsruhe of the state of Baden-Württemberg/Germany, 35-9185.81/G-145/21) and fully complied with European and national regulations for the care and use of laboratory animals (2010/63/EU). Eight- to ten-week-old C57Bl/6 female mice (Janvier) were used for the study.
The animals were administered 4 mg/kg Ac-[D-Leu]LLLRVK-amba in 0.100 mL 0.9% sodium chloride (NaCl) solution per mouse. Four animals received the peptide as intraperitoneal injection, and three animals as intravenous bolus injection into the tail vein. Blood samples were taken 20, 40, 60, and 120 min after administration by collecting a drop of blood from puncture of the facial vein into EDTA tubes (KABE Labortechnik, Nümbrecht, Germany). Whole-blood samples were immediately snap-frozen in liquid nitrogen and stored at −80 °C until analysis.
(§1) Blood samples for calibration and QC purposes were generated through the addition of 25 µL of the pertinent spike solution to 20 µL of blank blood and the subsequent addition of 25 µL of IS solution. Calibration samples were produced at 10, 30, 100, 300, 1000, 3000, and 10,000 ng/mL, and QC samples were produced at concentrations of 10, 30, 3750, and 7500 ng/mL. For study sample processing, 20 µL of each sample was added to 25 µL of IS solution, and 25 µL of ACN/H2O 1/1 + 0.1% FA was added for volume compensation to ensure that sample preparation matches that of study blood samples. For stability reasons, each sample was immediately depleted from proteins by adding 150 µL ACN including 0.1% FA. Samples were processed individually and kept frozen until processing. Subsequently, samples were centrifuged at 13,200× g for 5 min. From the extracts, 10 µL was transferred to 400 µL of ACN/H2O 1/19 + 0.1% FA in wells of a 96-well collection plate (Waters, Milford, MA, USA).
Calibration curves were determined with 1/x^2 weighted linear regression using peak area ratios of the analyte to IS. This calculation was performed using the software TargetLynx V4.2 (Waters, Milford, MA, USA). Blood pharmacokinetics were determined with the software Kinetica (v 5.0; Thermo Fisher Scientific, Waltham, MA, USA). Pharmacokinetic analyses were performed using standard non-compartmental methods. The elimination rate (λ) was calculated by linear regression of ln-transformed concentrations from the terminal concentration decline, and the half-life was calculated as ln 2 divided by λ. Standard calculations were performed using Microsoft Office Excel 2010 (Mountain View, CA, USA).

[2] = Freeze-and-thaw stability in whole blood QC samples; type: in vitro ADME, human; conditions: for freeze-and-thaw stability, Accuracy [%]: one cycle
Description: as §1
The applicable recommendations for bioanalytical method validation of the FDA and EMA were applied to the validation of the assay. Accuracy was calculated as the percentage of the ratio of the mean of the determined concentrations and the nominal concentration. The acceptance limit is 100 ± 15%, with the exception of the LLOQ where it is 100 ± 20% Q. The assay precision was calculated as the coefficient of variation of the determined sample concentrations. It needs to be ≤15% in general and ≤20% at the LLOQ. Each validation run included blank and IS controls, seven calibration samples in duplicate determination, and four QC samples (LLOQ and low, mid, and high QC concentrations) in six-fold determination. Recovery of the whole blood extraction process was calculated from peak areas of QC samples divided by the peak areas obtained from blank blood spiked with the respective amount after processing. Assessment of matrix effects was performed by the ratio of peak areas of blank blood samples spiked after processing with the peak areas of UPLC solvent containing an identical amount of analyte. Stability of the analyte was investigated in freeze-and-thaw cycles separated by at least 24 h and at room temperature for testing bench-top stability.
Because an isotopically labeled analog of Ac-[D-Leu]LLLRVK-amba was used as IS, potential variations in (negligible) matrix effects can be efficiently balanced by the IS due to its identical physicochemical characteristics. As a consequence, whole blood from other species is appropriate for calibration and QC preparation. Therefore, whole blood from human donors was used for these purposes, which also helps to reduce animal sacrifice.

level at 2 h ([1]; female, C57Bl/6, ip, mouse #1, 2 h after intraperitoneal administration of 4 mg/kg, whole blood, UPLC-MS/MS, single sample, read-out: calculated blood concentration): 0.0158 µg/mL
half-life ([1]; female, ip, mice, 4 mg/kg intraperitoneal, n = 4, UPLC-MS/MS, read-out: half-life after intraperitoneal administration): 15.9 ± 1 min
half-life ([1]; female, mice, 4 mg/kg intravenous bolus into tail vein, n = 3, UPLC-MS/MS, read-out: half-life after intravenous injection): 21 ± 1.6 min
intraperitoneal absorption ([1]; mice, 4 mg/kg intraperitoneal vs intravenous, judged by partial profiles, bioavailability not calculable): very efficient
freeze-and-thaw stability, accuracy ([2]; whole blood QC samples, one freeze-and-thaw cycle, range over QC levels, corresponding precision ≤14.0%, UPLC-MS/MS): 91.5 to 98.3%
deviation after further freeze-and-thaw cycles ([2]; whole blood, more than one freeze-and-thaw cycle, cycles separated by at least 24 h): > 15%
freeze-and-thaw stability, Accuracy [%] ([2]; whole blood, QC A, UPLC-MS/MS): 91.5%
freeze-and-thaw stability, Accuracy [%] ([2]; whole blood, QC B, UPLC-MS/MS): 91.6%
freeze-and-thaw stability, Accuracy [%] ([2]; whole blood, QC C, UPLC-MS/MS): 98.3%
SMILES: CC(=O)N[C@H](CC(C)C)C(=O)N[C@@H](CC(C)C)C(=O)N[C@@H](CC(C)C)C(=O)N[C@@H](CC(C)C)C(=O)N[C@@H](CCCNC(=N)N)C(=O)N[C@H](C(=O)N[C@@H](CCCCN)C(=O)NCc1ccc(C(=N)N)cc1)C(C)C [Ac-[D-Leu]LLLRVK-amba] (Ac-[dL]LLLRVK-{NH(4-amidinobenzyl)})
